Results on 28 molecules are retold here after patent publication US20050090522A1 (priority 2001, published 2005).

One assay has as its system HIV-1. As to the kind of experiment: HIV-1 single-round infectious luciferase reporter virus (pseudotype) assay in HeLa CD4 CCR5 cells. In kind it is cell-based. Particulars: Human immunodeficiency virus 1, HeLa-CD4/CCR5, 72 h, read-out: EC50 Group from Table 1, HeLa CD4 CCR5 cells, luciferase reporter virus, harvested 72 h after infection. Here is the method: • Virus production—Human embryonic Kidney cell line, 293, propagated in Dulbecco's Modified Eagle Medium (Life Technologies, Gaithersburg, Md.) containing 10% fetal Bovine serum (FBS, Sigma, St. Louis, Mo.). • Virus infection—Human epithelial cell line, HeLa, expressing the HIV-1 receptors CD4 and CCR^5 was propagated in Dulbecco's Modified Eagle Medium (Life Technologies, Gaithersburg, Md.) containing 10% fetal Bovine serum (FBS, Sigma, St. Louis, Mo.) and supplemented with 0.2 mg/mL Geneticin (Life Technologies, Gaithersburg, Md.) and 0.4 mg/mL Zeocin (Invitrogen, Carlsbad, Calif.). […] Transfections were performed using lipofectAMINE PLUS reagent as described by the manufacturer (Life Technologies, Gaithersburg, Md.). Experiment • 1. Compound was added to HeLa CD4 CCR5 cells plated in 96 well plates at a cell density of 5×10^4 cells per well in 100 μl Dulbecco's Modified Eagle Medium containing 10% fetal Bovine serum at a concentration of […]. • 2. 100 μl of single-round infectious reporter virus in Dulbecco's Modified Eagle Medium was then added to the plated cells and compound at an approximate multiplicity of infection (MOI) of 0.01, resulting in a final volume of 200 μl per well and a final compound concentration of <10 μM. • 3. Samples were harvested 72 h after infection. • 4. Viral infection was monitored by measuring luciferase expression from viral DNA in the infected cells using a luciferase reporter gene assay kit (Roche Molecular Biochemicals, Indianapolis, Ind.). Infected cell supernatants were removed and 50 μl of Dulbecco's Modified Eagle Medium (without phenol red) and 50 μl of luciferase assay reagent reconstituted as described by the manufacturer (Roche Molecular Biochemicals, Indianapolis, Ind.) was added per well. Luciferase activity was then quantified by measuring luminescence using a Wallac microbeta scintillation counter. • 5. […] An EC50 provides a method for comparing the antiviral potency of the compounds of this invention. The effective concentration for fifty percent inhibition (EC50) was calculated with the Microsoft Excel Xlfit curve fitting software. For each compound, curves were generated from percent inhibition calculated at 10 different concentrations by using a four paramenter logistic model (model 205). Table 1 is the key for the data in Tables 2-4. Cytoxicity assays were conducted with the same HeLa using methodology well known in the art.
In Table 5, X2, X4 etc. indicates the point of attachment. […] The data at 10 μM was calculated in the following manner:
For compounds tested at concentrations less than 10 μM, the percent inhibition at 10 μM was determined by extrapolation using the XLfit curve fitting feature of the Microsoft Excel spreadsheet software. Curves were obtained from 10 data points (% inhibition determined at 10 concentrations of compound) by using a four parameter logistic model (XLfit model 205: y=A+((B−A)/(I+((C/x)^D))), where, A=minimum y, B=maximum y, C=logEC50, D=slope factor, and x and y are known data values. Extrapolations were performed with the A and B parameters unlocked. […]
On the technique in general: A reporter such as luciferase makes a cellular process visible.
On to `C[C@@H]1CN(C(=O)c2ccccc2)CCN1C(=O)C(=O)c1c[nH]c2nc(-c3nnn[nH]3)ccc12` [Example 56], for which the EC50 was 1000 to 5000 nM.

Still in this assay, the particulars now being: Human immunodeficiency virus 1, HeLa-CD4/CCR5, read-out: EC50 Group from TABLE 1, HeLa CD4 CCR5 cells, single-round infectious luciferase reporter virus.
With `C[C@@H]1CN(C(=O)c2ccccc2)CCN1C(=O)C(=O)c1c[nH]c2c(-c3cnccn3)nccc12` [Example 33, 1-benzoyl-3-(R)-methyl-4-[(7-(pyrazin-2-yl)-6-azaindol-3-yl)-oxoacetyl]piperazine], the EC50 was under 1000 nM.

Turning to `O=C(C(=O)N1CCN(C(=O)c2ccccc2)CC1)c1c[nH]c2c(-c3cnccn3)nccc12` [Example 34, 1-benzoyl-4-[(7-(pyrazin-2-yl)-6-azaindol-3-yl)-oxoacetyl]piperazine], the EC50 is under 1000 nM.

On to `COc1cnc(-c2ccccn2)c2[nH]cc(C(=O)C(=O)N3CCN(C(=O)c4ccccc4)CC3)c12` [Example 36, 1-benzoyl-4-[(4-methoxy-7-(pyridin-2-yl)-6-azaindol-3-yl)-oxoacetyl]piperazine], for which the EC50 was under 1000 nM. Consider `C[C@@H]1CN(C(=O)c2ccccc2)CCN1C(=O)C(=O)c1c[nH]c2c(-c3cncnc3)ncc(F)c12` [Example 41, 1-benzoyl-3-(R)-methyl-4-[(4-fluoro-7-(pyrimidin-5-yl)-6-azaindol-3-yl)-oxoacetyl]piperazine], for which the EC50 was under 1000 nM. `CCOc1ncc(-c2ncc(OC)c3c(C(=O)C(=O)N4CCN(C(=O)c5ccccc5)CC4)c[nH]c23)s1` [Example 45, 1-benzoyl-4-[(4-methoxy-7-(2-ethoxy-thiazol-5-yl)-6-azaindol-3-yl)-oxoacetyl]piperazine]: the EC50 is under 1000 nM.

Consider `COc1cnc(-c2cncc(N)n2)c2[nH]cc(C(=O)C(=O)N3CCN(C(=O)c4ccccc4)CC3)c12` [Example 46, 1-benzoyl-4-[(4-methoxy-7-(2-amino-pyrazin-6-yl)-6-azaindol-3-yl)-oxoacetyl]piperazine], for which the EC50 is under 1000 nM. The same measure, in the same setting: then `COc1cnc(-c2cnc(NS(C)(=O)=O)cn2)c2[nH]cc(C(=O)C(=O)N3CCN(C(=O)c4ccccc4)CC3)c12` [Example 47], with under 1000 nM. The same measure, in the same setting: then `COc1cnc(-c2ncccn2)c2[nH]cc(C(=O)C(=O)N3CCN(C(=O)c4ccccc4)CC3)c12` [Example 49, 1-benzoyl-4-[(4-methoxy-7-(pdin-2-yl)-6-azaindol-3-yl)-oxoacetyl]piperazine], with under 1000 nM; and `COc1cnc(-c2nccs2)c2[nH]cc(C(=O)C(=O)N3CCN(C(=O)c4ccccn4)CC3)c12` [Example 50], with under 1000 nM. Still for that read-out and setting: then `COc1cnc(-c2cnc(C(N)=O)cn2)c2[nH]cc(C(=O)C(=O)N3CCN(C(=O)c4ccccc4)CC3)c12` [Example 55, 1-benzoyl-4-[(4-methoxy-7-(2-aminocarbonyl-pyrazin-5-yl)-6-azaindol-3-yl)-oxoacetyl]piperazine], with under 1000 nM.

As for `COc1cc(-c2ncc(OC)c3c(C(=O)C(=O)N4CCN(C(=O)c5ccccc5)CC4)c[nH]c23)nc(OC)n1` [Example 68, 1-benzoyl-4-[(4-methoxy-7-(2,6-dimethoxy-pyrimidin-4-yl)-6-azaindol-3-yl)-oxoacetyl]piperazine], the EC50 was under 1000 nM. Same read-out and setting: then `COc1ccc(-c2ncc(OC)c3c(C(=O)C(=O)N4CCN(C(=O)c5ccccc5)CC4)c[nH]c23)cn1` [Example 69, 1-benzoyl-4-[(4-methoxy-7-(6-methoxy-pyridin-3-yl)-6-azaindol-3-yl)-oxoacetyl]piperazine], with under 1000 nM; and `CCN(CC)c1nc(-c2ncc(OC)c3c(C(=O)C(=O)N4CCN(C(=O)c5ccccc5)CC4)c[nH]c23)cs1` [Example 70, 1-benzoyl-4-[(4-methoxy-7-(2-diethylamino-thiazol-4-yl)-6-azaindol-3-yl)-oxoacetyl]piperazine], with under 1000 nM.

Still in this assay, the particulars now being: Human immunodeficiency virus 1, HeLa-CD4/CCR5, read-out: EC50 Group from Table 1, Table 4; HeLa CD4 CCR5 cells, single-round luciferase reporter virus.
As for `C[C@@H]1CN(C(=O)c2ccccc2)CCN1C(=O)C(=O)c1c[nH]c2c(-c3cncnc3)ccnc12` [Example 51, 1-benzoyl-3-(R)-methyl-4-[(7-(pyrimidin-5-yl)-4-azaindol-3-yl)-oxoacetyl]piperazine], the 50% effective concentration (EC50) was under 1000 nM.

Take `C[C@@H]1CN(C(=O)c2ccccc2)CCN1C(=O)C(=O)c1c[nH]c2c(-c3cnccn3)ccnc12` [Example 52, 1-benzoyl-3-(R)-methyl-4-[(7-(pyrazin-2-yl)-4-azaindol-3-yl)-oxoacetyl]piperazine]: the EC50 is under 1000 nM. On the same count and under the same terms, then `C[C@@H]1CN(C(=O)c2ccccc2)CCN1C(=O)C(=O)c1c[nH]c2c(-c3nccs3)ccnc12` [Example 53, 1-benzoyl-3-(R)-methyl-4-[(7-(thiazol-2-yl)-4-azaindol-3-yl)-oxoacetyl]piperazine], with under 1000 nM.

On to `CCOc1ncc(-c2ccnc3c(C(=O)C(=O)N4CCN(C(=O)c5ccccc5)C[C@H]4C)c[nH]c23)s1` [Example 54, 1-benzoyl-3-(R)-methyl-4-[(7-(2-ethoxy-thiazol-5-yl)-4-azaindol-3-yl)-oxoacetyl]piperazine], for which the half-maximal effective concentration (EC50) was under 1000 nM. The same measure, in the same setting: to `CON(C)C(=O)c1ccnc2c(C(=O)C(=O)N3CCN(C(=O)c4ccccc4)C[C@H]3C)c[nH]c12` [Example 57] belongs under 1000 nM. Still for that read-out and setting: to `CON(C)C(=O)c1cc(Cl)nc2c(C(=O)C(=O)N3CCN(C(=O)c4ccccc4)C[C@H]3C)c[nH]c12` [Example 58, 1-benzoyl-3-(R)-methyl-4-[(5-chloro-(7-(methoxymethylamino)carbonyl)-4-azaindol-3-yl)-oxoacetyl]piperazine] belongs under 1000 nM. Same read-out and setting: then `C[C@@H]1CN(C(=O)c2ccccc2)CCN1C(=O)C(=O)c1c[nH]c2c(-c3ncc[nH]3)cc(Cl)nc12` [Example 60, 1-benzoyl-3-(R)-methyl-4-[(5-chloro-7-(imidazol-2-yl)-4-azaindol-3-yl)-oxoacetyl]piperazine], with under 1000 nM; and `Cc1c[nH]c(-c2cc(Cl)nc3c(C(=O)C(=O)N4CCN(C(=O)c5ccccc5)C[C@H]4C)c[nH]c23)n1` [Example 61, l-benzoyl-3-(R)-methyl-4-[(5-chloro-7-(4-methyl-imidazol-2-yl)-4-azaindol-3-yl)-oxoacetyl]piperazine], with under 1000 nM; and `Cc1nc(-c2cc(Cl)nc3c(C(=O)C(=O)N4CCN(C(=O)c5ccccc5)C[C@H]4C)c[nH]c23)[nH]c1C` [Example 62, 1-benzoyl-3-(R)-methyl-4-[(5-chloro-7-(4,5-dimethyl-imidazol-2-yl)-4-azaindol-3-yl)-oxoacetyl]piperazine], with under 1000 nM. Turning to `C[C@@H]1CN(C(=O)c2ccccc2)CCN1C(=O)C(=O)c1c[nH]c2c(-c3cnco3)cc(Cl)nc12` [Example 63, 1-benzoyl-3-(R)-methyl-4-[(5-chloro-7-(oxazol-5-yl)-4-azaindol-3-yl)-oxoacetyl]piperazine], the EC50 was under 1000 nM. On the same count and under the same terms, then `Cc1cc(-c2cc(Cl)nc3c(C(=O)C(=O)N4CCN(C(=O)c5ccccc5)C[C@H]4C)c[nH]c23)[nH]n1` [Example 64, 1-benzoyl-3-(R)-methyl-4-[(5-chloro-7-(3-methyl-pyrazol-5-yl)-4-azaindol-3-yl)-oxoacetyl]piperazine], with under 1000 nM.

Regarding `COc1ccc(-c2ccnc3c(C(=O)C(=O)N4CCN(C(=O)c5ccccc5)CC4)c[nH]c23)cc1` [Example 65, 1-(benzoyl)-4-[(7-(4-methoxy)-4-azaindol-3-yl)-oxoacetyl]piperazine], the EC50 is under 1000 nM.

On to `COc1ccc(-c2ccnc3c(C(=O)C(=O)N4CCN(C(=O)c5ccccc5)C[C@@H]4C)c[nH]c23)cc1` [Example 66, 1-benzoyl-3-(S)-methyl-4-[(7-(4-methoxy)-4-azaindol-3-yl)-oxoacetyl]piperazine], for which the EC50 is under 1000 nM. On the same count and under the same terms, then `COc1ccc(-c2ccnc3c(C(=O)C(=O)N4CCN(C(=O)c5ccccc5)C[C@H]4C)c[nH]c23)cc1` [Example 67, 1-benzoyl-3-(R)-methyl-4-[(7-(4-methoxyphenyl)-4-azaindol-3-yl)oxoacetyl]piperazine], with under 1000 nM.

The EC50 is the concentration needed to bring the measured effect to its halfway point.
